The test system of experiment [1] is antennae of A. quadriimpressum. The experiment in a line: Electroantennogram (EAG) responses of binding odorants. The experiment is classed as in vivo, Ambrostoma quadriimpressum. Particulars: 0.1, 1 and 10 µg/µl in paraffin oil; normalized to negative control.
Experiment [2] deals with AquaOBP4. The experiment in a line: Fluorescence competitive binding assay with 1-NPN reporter. Details: species or system Ambrostoma quadriimpressum. Particulars: for binding to AquaOBP4 (1-NPN displacement): first-round screening. The text has this: Binding affinity was primarily tested with a panel of 40 A. quadriimpressum habitat-related compounds, most of which are abundantly distributed in elms and A. quadriimpressum. Additionally, one newly identified repellent, cinnamaldehyde, was included[25],[27],[28]. After the molecular model of AquaOBP4 was established, we selected two additional compounds, which also came from elms and A. quadriimpressum, for model validation. All of the compounds were purchased from Sigma-Aldrich (Millipore Sigma, USA) with purities of greater than 95%. The CAS numbers, structures and sources of the tested compounds are listed in Table 2, and detailed information (including content) for each odorant is provided in Table S1.
N-phenyl-1-naphthylamine (1-NPN) was used as a reporter to measure the affinity of the fluorescent 1-NPN ligand to proteins. The fluorescence spectra were recorded using a Fluoromax-4 spectrofluorometer (HORIBA Jobin Yvon, New York, USA) with 2 µM protein in 50 mM ammonium acetate (pH 7.2) at room temperature; the compounds and 1-NPN were dissolved in high-performance liquid chromatography (HPLC)-grade methanol at a concentration of 1 mM. Parameter selection was such that the slit widths for both excitation and emission were 10 nm. The reporter was excited at 337 nm, and the emission spectra were recorded between 380 and 500 nm. The AquaOBP4 saturation curve was tested using 1-NPN at 2 to 14 µM, and the affinities of the compounds were estimated using 2 µM 1-NPN and 10 to 70 µM concentrations of the compounds. The curves were then linearized using Scatchard plots. IC50 and Kd values were analyzed using Prism 6 (GraphPad Software, USA), and Ki values were calculated using the following equation: Ki = [IC50]/1 + [1-NPN]/Kd, where [1-NPN] is the concentration of dissociative 1-NPN and Kd is the dissociation constant of the protein/1-NPN complex. To investigate the response of AquaOBP4 at low pH, the fluorescence binding affinity between AquaOBP4 and one of the best ligands was measured at pH 5. Then, 50 mM ammonium acetate (pH 5) was used as a buffer to dissolve the AquaOBP4 protein.

For experiment [3], the system named is antennae of A. quadriimpressum. Details: method as in previous results of the authors. Particulars: ref previous results of the authors; cited from earlier work.
For experiment [4], the system named is A. quadriimpressum. Details: method as in doi:10.1653/024.099.0212. Particulars: cited from earlier work.
The subject of experiment [5] is A. quadriimpressum adults. Put plainly: Y-tube olfactometer behavioral test. It counts as in vivo, Ambrostoma quadriimpressum. Particulars: 10 µg/µl in paraffin oil (methods), 1 µg/µl; vs paraffin oil control; N = 90. On the procedure: The responses of A. quadriimpressum to the three best ligands were assessed in a Y-tube olfactometer. The compounds were tested at an intermediate concentration of 10 µg/µl in paraffin oil. In these assays, 20 μl of the odorant was applied to a piece of filter paper (25 × 25 mm), which was then placed in one of the olfactometer arms. In the other arm, 20 μl of paraffin oil was used as a negative control. Thirty beetles (15 males and 15 females) were individually tested, with three replicates for each individual (for a total of 90 replicates). A red light source was used in the darkroom to avoid light interference. For the Y-tube (1-cm diameter, 100-cm base length, 10-cm arm length), one small hole was cut into the base of the Y-tube at 10 cm for releasing beetles. The source of the air that passed through the Y-tube was a pressurized tank of pure air. The air was first filtered through active carbon and then humidified by bubbling it through a bottle filled with double-distilled (dd) water before entering the Y-tube. The air flow traveled through both arms of the Y-tube olfactometer at a speed of 300 ml/min. Each individual beetle was placed at the entrance of the olfactometer (Fig. 1), and their “choice” was recorded when the beetle entered an arm and remained there for 30 s. If an insect made no choice within 3 min, the result was recorded as “no-choice”. […]

[6] abbreviates: Table 3, pH 7.2, 2 µM 1-NPN, 2 µM protein, compounds 10 to 70 µM.
Where [7] appears, read: Table 3 and text, pH 7.2, 2 µM 1-NPN, calculated from IC50.

Entries after “also recorded” stand apart in the source; their conditions may differ. Like-named read-outs stand apart in the source and are kept apart here.

The IC50 is the concentration that inhibits the measured activity by half. The low end stands for greater potency, the high end for weaker potency. By Ki is commonly meant the equilibrium dissociation constant of an inhibitor or competing ligand from its target. Usually pKi stands for the Ki on a negative log10 scale, so that one unit is a factor of ten. Low values mean a large Ki, high ones a small Ki. With `CC(C)COC(=O)c1ccccc1C(=O)OCC(C)C` [Diisobutyl phthalate], the EAG response result in experiment [1] is “strong EAG responses”. For the same compound, the IC50 came out at 50.4 µM in experiment [2] (setting [6]) and 50.4 µM in experiment [2] (Table 4, pH 7.2, 2 µM 1-NPN). Moreover, the Ki was 26.8 µM in experiment [2] (setting [7]) and 26.8 µM in experiment [2] (Table 4, pH 7.2, 2 µM 1-NPN). Further, the pKi in experiment [2] (Table 4) was 4.57.

With `O=C/C=C/c1ccccc1` [Cinnamaldehyde], the IC50 in experiment [2] (setting [6]) was found to be 149 µM; in experiment [2] (Table 4, pH 7.2, 2 µM 1-NPN), 149 µM. The Ki in experiment [2] (setting [7]) was 79.3 µM; in experiment [2] (Table 4, pH 7.2, 2 µM 1-NPN), 79.3 µM. Besides, the pKi in experiment [2] (Table 4) was found to be 4.10. For the same compound, in experiment [3], the “physiological response on the antennae of A. quadriimpressum” value was “strong physiological response”. The “repellent / antifeedant effect against A. quadriimpressum” value was “strong repellent” in experiment [4] and “antifeedant” in experiment [4] (listed as cinnamaldehyde).

A word on the Kd: it is the equilibrium constant for the complex coming apart. Regarding `c1ccc(Nc2cccc3ccccc23)cc1` [1-NPN, N-phenyl-1-naphthylamine, reference compound], the Kd in experiment [2] (pH 5) worked out at 1490 ± 80 nM; in experiment [2] (pH 7.2, 2 µM protein, 1-NPN 2 to 14 µM), 2270 ± 160 nM.

Regarding `CC/C=C\CCOC(C)=O` [Leaf acetate], the “binding to AquaOBP4 (1-NPN displacement)” value in experiment [2] (pH 7.2) is “no binding”.

Turning to `CCCCOC(=O)c1ccccc1C(=O)OCCCC` [Dibutyl phthalate], in experiment [1], the EAG response entry was “strong EAG responses”. Moreover, in experiment [5], the “attraction of A. quadriimpressum adults in Y-tube olfactometer” value is on record as “slightly higher attractiveness”. The IC50 in experiment [2] (setting [6]) was found to be 45.6 µM; in experiment [2] (Table 4, pH 7.2, 2 µM 1-NPN), 45.6 µM. The Ki in experiment [2] (setting [7]) was 24.2 µM. Also, the pKi in experiment [2] (Table 4) amounted to 4.62.

In the case of `CC/C=C\CCOC(=O)c1ccccc1` [cis-3-Hexenyl benzoate], the IC50 in experiment [2] (setting [6]) came to 65.8 µM; in experiment [2] (Table 4, pH 7.2, 2 µM 1-NPN), 65.8 µM. For the same compound, in experiment [2] (setting [7]), the inhibitory constant (Ki) was 35 µM. The same compound showed a pKi in experiment [2] (Table 4) of 4.46.

In experiment [2] (Table 4), Isoeugenol had a pKi of 3.77. For the same compound, in experiment [2] (Table 4, pH 7.2, 2 µM 1-NPN), the concentration for half-maximal inhibition (IC50) was found to be 321 µM and the Ki was determined as 171 µM.

Take `CC(=O)Oc1ccccc1` [Acetic acid, Phenyl ester]: the “binding to AquaOBP4 (1-NPN displacement)” value in experiment [2] (pH 7.2) is recorded as “did not bind”.

Take `CC(=O)/C=C/C1=C(C)CCCC1(C)C` [β-Ionone]: the IC50 in experiment [2] (setting [6]) turned out to be 56.6 µM; in experiment [2] (Table 4, pH 7.2, 2 µM 1-NPN), 56.6 µM. Moreover, in experiment [2] (setting [7]), the Ki is 30.1 µM. The pKi in experiment [2] (Table 4) is listed as 4.52.

As for `COC(=O)c1ccccc1O` [Methyl salicylate], the “binding to AquaOBP4 (1-NPN displacement)” value in experiment [2] (pH 7.2) is given as “did not bind”.

`COC(=O)c1ccccc1` [Methyl benzoate]: the “binding to AquaOBP4 (1-NPN displacement)” value in experiment [2] (pH 7.2) is “did not bind; also recorded: no binding”.

As for `CCCCCCCCOC(=O)c1ccccc1C(=O)OCCCC` [Butyl octyl phthalate], in experiment [1], the EAG response result is given as “strong EAG responses”. Moreover, the Ki in experiment [2] (Figure 6 legend, 1-NPN 2 μM) came to 12.7 µM; in experiment [2] (Table 4, pH 7.2, 2 µM 1-NPN) it was 12.7 µM; in experiment [2] (pH 5), 16.8 µM. The compound also came in with a pKi in experiment [2] (Table 4) of 4.90. In experiment [2] (Table 4, pH 7.2, 2 µM 1-NPN), the IC50 came to 23.9 µM.

The values above are taken from PMC5684361, “Selectivity and ligand-based molecular modeling of an odorant-binding protein from the leaf beetle Ambrostoma quadriimpressum (Coleoptera: Chrysomelidae) in relation to habitat-related volatiles” (Scientific Reports, 2017).
